Data published in US7314953B2, “Treatment of lung cells with histone deacetylase inhibitors” (Errant Gene Therapeutics, LLC, priority 2001, dated 2008).

What was measured:
non-CF HBE cells = test: Short circuit current (Ussing chamber), electrogenic sodium transport in non-CF HBE cells derived from COPD patients; format: cell-based, human; conditions: Homo sapiens; 1 μM, non-CF HBE cells
Experimental: Studies were carried out using human bronchial epithelial (HBE) cells derived from five cystic fibrosis (CF) patients and five nonCF patients. The protocol is described in Devor, D. C. et al., “Pharmacological modulation of ion transport across wild-type and DeltaF508 CFTR-expressing human bronchial epithelia,” Am. J. Physiol. 279: C461-C479, 2000.
Cells were isolated and grown on filters for short circuit current (Isc) studies. Cells were mounted in modified Ussing chambers and the Isc monitored. The change in Isc in response to amiloride (10 μM) was taken as a measure of net electrogenic sodium transport after equilibration for 20 minutes. Forskolin (2 μM), UTP (100 μM), and genistein (30 μM) were used to stimulate anion secretion. Results from 6 to 12 similar experiments were obtained.
7-Phenyl-2,4,6-heptatrienoylhydroxamic acid ([…]) was added to the culture medium and the cells were incubated for 24, 48, and 72 hours. Cells were fed every 24 hours with fresh media containing the compound. Control cells received an equivalent amount of vehicle (DMSO). Short circuit current measurements were also made on T84 cells, a human colonic epithethial cell line that secretes chloride by a CFTR mediated mechanism, and on M1 cells, a mouse kidney cell line that absorbs sodium by an ENaC mediated mechanism.
Table 3 sumarizes the results of treating non-CF cells derived from COPD patients with 30 μM 7-phenyl-2,4,6-heptatrienoylhydroxamic acid for 72 hours. Electrogenic sodium transport was estimated from the amiloride (5 μM) sensitive short circuit current. Anion secretion was estimated from the forskolin (2 μM) stimulated short circuit current after the addition of amiloride. The treatment of cells with 30 μM 7-phenyl-2,4,6-heptatrienoylhydroxamic acid for 72 hours caused an inhibition in the amiloride sensitive sodium transport of nearly 80%. This effect was concentration and dose dependent with a half-maximal inhibition concentration of 13 μM±3 μM and a half-maximal inhibition at 24 hours.

histone deacetylase = histone deacetylase inhibitor; cited from earlier work
CF HBE cells = test: Short circuit current (Ussing chamber), electrogenic sodium transport in CF HBE cells; format: cell-based, human; conditions: HBE cells treated for 72 hours

CC(/C=C/C(=O)NO)=C\[C@@H](C)C(=O)c1ccc(N(C)C)cc1 [Trichostatin, reference compound]
inhibition at 1 µM (non-CF HBE cells): 70%
Ki (histone deacetylase): low
effect on sodium transport (CF HBE cells; 3 nM, 30 nM, and 100 nM): no effect
inhibition at 1 µM (CF HBE cells; Homo sapiens, 1 μM): 84%
